# Experimental data from patent US9289446B2, “Myocardial perfusion imaging methods and compositions” (GILEAD SCIENCES, INC., priority 2002, dated 2016).
# Tests used:
# [1] = Solubility of CVT-3146 in water and in MBA-containing composition; type: physicochemical; conditions: methylboronic acid co-solvent, dependence on pH
# Protocol: A preferred A2A receptor agonist of this invention is CVT-3146. CVT-3146 has solubility in water of about 50 micrograms/mL. Therefore, CVT-3146 can be dissolved and administered in water so long as the desired weight amount of CVT-3146 can be administered in an acceptable volume. For example, a preferred dose of about 400 micrograms can be administered in 8 mL of water. If this volume is too great for administration purposes, or if the pharmaceutical composition will be stored at other than room temperature (RT), then additional ingredients can be added to the composition to increase the solubility of CVT-3146 in the composition and/or to provide the resulting pharmaceutical composition with other improved properties such as improved stability and storage properties. Pharmaceutical compositions of this invention that include CVT-3146 may include up to about 1 milligram/mL of CVT-3146. It is preferred that pharmaceutical compositions including CVT-3146 include from about 50 to about 250 micrograms/mL, and more preferably from about 50 to 150 micrograms/mL of CVT-3146.
# In order to improve their solubility and storage properties, A2A receptor agonists of this invention can be administered in a pharmaceutical composition including a methylboronic acid (MBA) co-solvent. The methylboronic acid is added to the pharmaceutical composition to improve agonist solubility and shelf life. […]
# [2] = Example 3: maximum tolerated dose and safety of single IV bolus CVT-3146 in healthy volunteers, supine and standing; type: in vivo; conditions: 30 μg/kg supine, 4 subjects per group
# Protocol: This Example is a study performed to evaluate (1) the maximum tolerated dose of CVT-3146 and (2) the pharmacokinetic profile of CVT-3146 in healthy volunteers, after a single IV bolus dose.
# The study was performed using thirty-six healthy, non-smoking male subjects between the ages of 18 and 59 and within 15% of ideal body weight.
# The study was performed in phase 1, single center, double-blind, randomized, placebo-controlled, crossover, ascending dose study. Randomization was to CVT-3146 or placebo, in both supine and standing positions.
# CVT-3146 was administered as an IV bolus (20, seconds) in ascending doses of […], 10, 20, and 30 μg/kg.
# Subjects received either CVT-3146 of placebo on Day 1 supine, then crossover treatment on Day 2 supine. On Day 3, subjects received CVT-3146 or placebo standing, then crossover treatment on Day 4 standing.
# Patient safety was monitored by ECG, laboratory assessments, and collection of vital signs and adverse events.
# Pharmacodynamics: • The study evaluated the relationship of changes in heart rate to dose in both standing and supine positions and plasma concentration in the supine position. Results
# [3] = test system: blood flow velocity in LCX, BA, FA and PA; experiment: Example 4: blood flow velocity (APV) in various vascular beds in the anesthetized dog; type: in vivo; conditions: 1.0 μg/kg iv bolus
# From the text: CVT-3146 is a novel selective A2A adenosine receptor agonist being developed as a pharmacologic stressor for radionuclide myocardial perfusion imaging. […] The goal of this study was to determine the differential effects of CVT-3146 on blood flow velocity in various vascular beds.
# The effects of CVT-3146 were quantified as the average peak blood flow velocity (APV) using intravascular Doppler transducer tipped catheter. Heart rate (HR) and systemic arterial blood pressure (BP) were also monitored.
# [4] = Example 7: adverse effects and hemodynamic effects of CVT-3146 as pharmacologic stress agent in MPI protocol; type: in vivo, human
# From the text: CVT-3146 is a selective A2A adenosine receptor agonist that produces coronary hyperemia and potentially less adverse effects due to its limited stimulation of receptor subtypes not involved with coronary vasodilation. This study evaluated the effectiveness of CVT-3146 as a pharmacologic stress agent.
# 36 subjects (27 men, 9 women; 67±10 years) were studied with two doses of CVT-3146 [400 mcg (n=18), 500 mcg (n=18)], administered as an IV bolus, as part of a pharmacologic stress myocardial perfusion imaging protocol.
# [5] = test system: blood flow in coronary, mesenteric, hind limb and renal vascular beds; experiment: Example 8: vasodilator effects in different vascular beds (CBF, MBF, LBF, RBF) in awake dogs; type: in vivo; conditions: n=6, FIG. 18
# Protocol: Example 8 employed a pharmaceutical composition consisting of an aqueous composition of 100 micrograms/mL CVT-3146 in 15% (w:v) propylene glycol and 100 mM phosphate buffer at pH 7 with 0.1% EDTA. The formulation was stored in type I glass vials at 5 mL per vial.
# In this study the vasodilator effects of CVT-3146 were compared to those of ADO in different vascular beds in awake dogs. Dogs were chronically instrumented for measurements of the blood flow in coronary (CBF), mesenteric (MBF), hind limb (LBF), and renal (RBF) vascular beds, and hemodynamics.
# [6] = 36 subjects, 400 or 500 mcg IV bolus
smiles,measurement,setting,value
"CNC(=O)c1cnn(-c2nc(N)c3ncn([C@@H]4O[C@H](CO)[C@@H](O)[C@H]4O)c3n2)c1 [CVT-3146, (1-{9-[(4S,2R,3R,5R)-3,4-dihydroxy-5-(hydroxymethyl)oxolan-2-yl]-6-aminopurin-2-yl}pyrazol-4-yl)-N-methylcarboxamide]",solubility in a pharmaceutical composition including MBA,[1],tends to decrease as the composition pH drops towards neutral
same,"Dizziness labeled as severe, number of subjects with AE",[2],0
same,"Palpitation labeled as severe, number of subjects with AE",[2],2
same,"Syncope labeled as severe, number of subjects with AE",[2],0
same,decrease in BP,[3],12 mmHg
same,time for effect on blood flow velocity to dissipate,[3],less than ten
same,transient increase in HR,[3],16 bpm
same,incidence of adverse effects (AE),[4]; [6],72%
same,patients with adverse effects (AE),[4]; [6],26 pts
same,tolerability,[4]; 400 and 500 mcg IV bolus,well-tolerated and has acceptable hemodynamic effects
same,"Diastolic BP, peak Absolute Change","[4]; 400 and 500 mcg, mean±S.D.",−5.4 ± 7.2 mmHg
same,"Diastolic BP, peak Relative Change","[4]; 400 and 500 mcg, mean±S.D.",−7.9% ± 10.5%
same,"Heart Rate, peak Absolute Change","[4]; 400 and 500 mcg, mean±S.D.",+21.9 ± 10.4 beats per min
same,"Heart Rate, peak Relative Change","[4]; 400 and 500 mcg, mean±S.D.",+36.7% + 21.0%
same,"Systolic BP, peak Absolute Change","[4]; 400 and 500 mcg, mean±S.D.",−5.9 ± 10.7 mmHg
same,"Systolic BP, peak Relative Change","[4]; 400 and 500 mcg, mean±S.D.",−4.1% ± 7.6%
same,serious AE,[4]; both doses,"One serious AE occurred, with exacerbation of a migraine headache"
same,share of AEs mild to moderate,[4]; both doses,96%
same,share of AEs resolved within 15 min without treatment,[4]; both doses,91%
same,"time of peak hemodynamic effect, heart rate (HR)",[4]; both doses,≤ 0.033 h
same,"time of peak hemodynamic effect, systolic blood pressure (BP)",[4]; both doses,4 min
same,deviation of BP from baseline,[4]; thirty min after CVT-3146,< 2%
same,increase in hind limb blood flow (LBF) compared to ADO,[5],smaller increase in LBF than ADO
